Holding throughout (test): Bliss excess, mean over the matrix (fraction); higher = more synergy
Assay [1] deals with SUIT-2 (Pancreatic Carcinoma). The method, boiled down:
(§1)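 After 24 hours at 37°C and 5% CO2 in 1536-well plates, cells in DMEM/F12 or RPMI plus 10% FBS received two-drug dose matrices for 72 hours. Viability came from CellTiter-Glo 2.0 luminescence and was scaled as inhibition, anchored at 0 by vehicle wells and at 1 by blank wells. Combination Emax is taken as the second-highest inhibition in the matrix, and Bliss excess as the observed combination effect less EA + EB − EA·EB, with EA and EB the single-agent effects.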

Assay [2] has as its system TGBC24TKB (Biliary Tract Carcinoma). An outline of the steps: as §1
The subject of assay [3] is SW756 (Cervical Carcinoma). The method, boiled down:
as §1

Another assay has as its system RH-1 (Ewing's Sarcoma). The method, boiled down:
as §1

Assay [4] has as its system SW780 (Bladder Carcinoma). An outline of the steps:
as §1

The test system of assay [5] is KM-H2 (Hodgkin's Lymphoma). The method, boiled down: as §1

Molecules are shown by their SMILES.

Turning to `CS(=O)(=O)CCNCc1ccc(-c2ccc3ncnc(Nc4ccc(OCc5cccc(F)c5)c(Cl)c4)c3c2)o1` [Lapatinib] + NC1(c2ccc(-c3nc4ccn5c(=O)[nH]nc5c4cc3-c3ccccc3)cc2)CCC1 [MK-2206] (first compound max 10 µM, 7x7, partner max 10 µM), the Bliss excess in assay [1] was -0.0219; in assay [2], 0.0667; in assay [3], -0.0506; with RH-1 (Ewing's Sarcoma), -0.0202; in assay [4] it was -0.0054; in assay [5] it was 0.0116.
